This assay relates to OCI-LY10 B lymphoma cells. Description: Orthotopic murine CNS lymphoma model, OCI-LY10 (bioluminescence tumor growth, survival). The class given is in vivo, athymic mice. As to conditions: for median survival: OCI-LY10 model; for in vivo tumor growth (luminescence signal) vs control: P<0.05, n=8. How it is done:
Animal and housing: Female athymic mice (8-10 weeks old and weighing 20-25 g at the beginning of the study) were purchased from Harlan laboratories. They were housed in a temperature-controlled sterilized room (23±2° C.) with a 12-h light/dark cycle and free access to food and water throughout the study. Animal use was approved by Mayo Foundation Institutional Animal Use and Care Committee and was in accordance with NIH Guide for the Care and Use of Laboratory Animals.
Orthotopic murine CNS lymphoma models: Two murine CNS lymphoma models were created by intracerebral injection of 2.5×10^4 luciferase-transfected Raji or 1×10^5 luciferase-transfected OCI-LY10 B lymphoma cells in athymic mice under anesthesia using a stereotactic platform. Eight-week-old athymic mice underwent minimum 7-day acclimation/quarantine prior to surgery. Surgery was performed in a laminar flow hood under sterile conditions. Tylenol 300 mg/kg PO was given for analgesia 24 hours before the surgery continuing 48 hours postoperatively. Anesthesia was achieved by inhalation of 1-2% isoflurane. After the mouse became well anesthetized, it was placed in the Kopf stereotactic instrument. A small amount of BNP antibiotic cream (a mixture of Bacitracin, Neomycin and Polymyxin) was smeared on its eyes to prevent infection and corneal damage during surgery. A strip of soft fabric was placed over the mouse's body and tail to prevent excessive heat loss during surgery. The scalp area was cleaned with a 2% solution of Betadine and dried with cotton tipped applicator. A midline sagittal incision was made in the scalp. A small burr hole was drilled in the left skull with a surgical drill (Kopf) or a Dremel drill according to the coordinates (AP: 0.5 mm, LM: 2.5 mm) as determined by reference to the mouse brain atlas by Franklin and Paxinos. Paxinos, 2001. The dura mater was surgically exposed, and a 10 μl-Hamilton syringe with a 26S-gauge beveled needle was lowered into the left cerebral hemisphere up to the depth of 3 mm and 5 μl of tumor cells was slowly infused (0.5 μl/min). The needle was left in place for 5 minutes to prevent reflux and then was slowly removed. The skin was closed with wound clips. The mice recovered from anesthesia and surgery in a warm environment and were not returned to their cages until motor activity returned. Cages were placed on top of a heating pad to minimize the loss of body heat during the recovery. The mice were monitored postoperatively at least twice a day for 5 days or until recovery was complete.
Bioluminescence imaging of mouse: After intracerebral injection of lymphoma cells, all the mice were subjected to bioluminesence imaging (“BLI”) twice a week starting at day-4 post-intracerebral injection to monitor the real-time in vivo tumor growth. BLI was conducted using a Xenogen Lumina optical imaging system (Caliper Life Sciences, Hopkinton, Mass.). Mice were anesthetized with isofluorane before intraperitoneal injections of luciferin at a dose of 150 mg/kg, providing a saturating substrate concentration for luciferase enzyme. Peak luminescent signals were recorded 10 minutes after luciferin injection. Regions of interest encompassing the intracranial area of signal were defined using Living Image software (Xenogen), and the total photons/s/steradian/cm^2 was recorded.
In vivo preclinical evaluation of 4-amino-2-(2,6-dioxo-piperidine-3-yl)-isoindoline-1,3-dione in murine CNS lymphoma models: Mice were imaged 4 days after intracerebral injection and were distributed among different treatment groups with equivalent average BLI signal. Real time tumor growth was monitored by BLI. Tumor growth and survival data were analyzed for statistical difference between the groups. Mice were assigned to four experimental groups and one vehicle control group in Raji model. Mice in experimental groups received 4-amino-2-(2,6-dioxo-piperidine-3-yl)-isoindoline-1,3-dione 0.3 mg/kg, 3 mg/kg, 10 mg/kg, or 30 mg/kg by oral gavage daily for 28 days. […]

For `Nc1cccc2c1C(=O)N(C1CCC(=O)NC1=O)C2=O` (stereo not drawn) [Pomalidomide, 4-amino-2-(2,6-dioxo-piperidine-3-yl)-isoindoline-1,3-dione], the median survival by setting is: (3 mg/kg oral gavage daily for 28 days) 32 days; (10 mg/kg oral gavage daily for 28 days) 37 days; (30 mg/kg oral gavage daily for 28 days) 40 days. Further, the “in vivo tumor growth (luminescence signal) vs control” value (OCI-LY10 model, 3, 10 and 30 mg/kg groups) is on record as “significantly slower”; the “in vivo tumor growth (luminescence signal) vs control” value (OCI-LY10 model, 3, 10 and 30 mg/kg groups, listed as 4-amino-2-(2,6-dioxo-piperidine-3-yl)-isoindoline-1,3-dione) is “reduction of tumor growth”. Also, under “OCI-LY10 model, 3, 10 and 30 mg/kg groups, p<0.05, n=8”, the “survival, Kaplan-Meier analysis vs control” value is given as “prolongation of survival”.

For the origin of these results see patent US9839632B2, “Methods and compositions using 4-amino-2-(2,6-dioxo-piperidine-3-yl)-isoindoline-1,3-dione for treatment and management of central nervous system cancers” (CELGENE CORPORATION, priority 2013, dated 2017).
